Patent US20090143285A1, “TARGET PROTEIN AND TARGET GENE FOR DRUG DISCOVERY AND SCREENING METHOD” (REVERSE PROTEOMICS RESEARCH INSTITUTE CO., LTD., priority 2005, published 2009)
Positions count from the first letter of the chain named. Entries after “also recorded” stand apart in the source; their conditions may differ. Each block holds one molecule with its values, some of them ahead of it.

Columns and labels:
FLJ25288-derived protein = biological target: T1, FLJ25288-derived protein (Homo sapiens, UniProt P09525, T85M); assay: SEC/MS interaction analysis, FLJ25288-derived protein (Annexin A4); assay type: binding; conditions: TSKgel super SW2000 micro-LC column (1.0 mm ID×30 mm); presence vs absence of protein; data not shown
T1 construct: His-tag (N); made in house; host or cells: Escherichia coli BL21star(DE3)pLysS
T1 sequence (P09525 1-321 isoform P09525-3 T87M): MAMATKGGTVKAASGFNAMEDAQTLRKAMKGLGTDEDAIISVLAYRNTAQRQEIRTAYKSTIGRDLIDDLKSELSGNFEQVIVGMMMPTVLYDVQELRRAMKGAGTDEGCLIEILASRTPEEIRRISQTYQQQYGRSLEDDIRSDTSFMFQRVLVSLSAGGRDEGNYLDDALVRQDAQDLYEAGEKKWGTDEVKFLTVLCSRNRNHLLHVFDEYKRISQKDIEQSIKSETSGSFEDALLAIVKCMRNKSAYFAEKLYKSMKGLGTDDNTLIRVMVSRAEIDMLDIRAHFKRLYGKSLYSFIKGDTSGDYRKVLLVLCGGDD
Excerpt: (§1) To analyze the interactions between commonly used drugs and proteins expressed from human full-length cDNA clones while keeping both the proteins and the compounds in non-modified, non-immobilized state, size exclusion chromatography (SEC) and mass analysis were used in combination. The specific procedures are shown below.
(§2) The compound-protein mixture prepared in step 1 was subjected to chromatography using an SEC column, the compound and the protein were separated by SEC, and the compound that interacted with the bound compound or protein contained in the protein fraction was analyzed using a mass analyzer.
(§3) Protein concentrations were measured using BCA Protein Assay (PIERCE), in consideration of the purity calculated by SDS-PAGE.
(§4) Mass analysis was performed using LCQ DECA XP (Thermoelectron) or Q-TOF micro (Micromass), equipped with an ESI probe. […]
(§5) In the 384-well spin column method, Unifilter 100 (Whatman), packed with 10 μL (dry volume) of Bio-Gel P6 (BIO-RAD) and swollen with milliQ water, was used as the SEC column. […] 2-μL of mass analysis samples were injected using an autosampler at 2-minute intervals; the mass spectral intensity of the compound was measured to retrieve the spectral intensity of the pharmaceutical compound contained in the SEC spin column filtrate (protein fraction eluted from SEC).

[1] = test system: FLJXXXXX-derived proteins; assay: SEC/MS spin column interaction analysis of FLJXXXXX-derived proteins and various compounds (Tables 30-1 to 30-4); assay type: binding, human; conditions: SEC spin column filtrate, spectral intensity increased with doses of compound and protein
FLJ11211-derived protein = biological target: T2, FLJ11211-derived protein (Homo sapiens, UniProt Q9Y222, I712M); assay: SEC/MS interaction analysis, FLJ11211-derived protein (DMTF1; DMP1); assay type: binding; conditions: spin column method; mixture with protein vs buffer solution alone; data not shown
T2 construct: corresponds to a partial peptide of human DMP1 on the C-terminal side thereof (303 amino acid residues); His-tag (N); made in house; host or cells: Escherichia coli BL21star(DE3)pLysS
T2 sequence (Q9Y222 458-760 I712M): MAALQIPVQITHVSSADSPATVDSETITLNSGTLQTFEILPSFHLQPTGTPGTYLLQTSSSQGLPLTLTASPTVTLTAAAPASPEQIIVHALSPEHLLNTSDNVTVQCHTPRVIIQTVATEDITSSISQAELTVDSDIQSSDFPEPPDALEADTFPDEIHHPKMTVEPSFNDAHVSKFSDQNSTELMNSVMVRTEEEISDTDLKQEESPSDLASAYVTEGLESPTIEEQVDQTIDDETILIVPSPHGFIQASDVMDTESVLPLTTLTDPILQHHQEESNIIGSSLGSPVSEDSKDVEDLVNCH
Excerpt: as §1, §2, §3, §4, §5

FLJ38897-derived protein = biological target: T3, FLJ38897-derived protein (Homo sapiens, UniProt P57764); assay: SEC/MS interaction analysis, FLJ38897-derived protein (GSDMDC1); assay type: binding; conditions: spin column method; mixture with protein vs buffer solution alone; data not shown
T3 construct: His-tag (N); made in house; host or cells: Escherichia coli BL21star(DE3)pLysS
T3 sequence (P57764 265-484): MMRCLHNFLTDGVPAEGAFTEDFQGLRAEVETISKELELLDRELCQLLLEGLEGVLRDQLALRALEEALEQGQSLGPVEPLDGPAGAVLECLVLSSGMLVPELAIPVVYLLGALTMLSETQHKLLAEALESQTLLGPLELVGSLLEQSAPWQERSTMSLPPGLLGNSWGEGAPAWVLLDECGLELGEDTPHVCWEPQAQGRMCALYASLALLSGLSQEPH
Excerpt: as §1, §2, §3
Mass analysis was performed using LCQ DECA XP (Thermoelectron) or Q-TOF micro (Micromass), equipped with an ESI probe. The LC pump used was Agilent 1100 (Yokogawa Analytical Systems), and the autosampler used was HTC-PAL (CTC Analytics) equipped with a cooling stacker. The SEC column used was a micro-LC column or a 384-well spin column. […]
In the 384-well spin column method, Unifilter 100 (Whatman), packed with 10 μL (dry volume) of Bio-Gel P6 (BIO-RAD) and swollen with milliQ water, was used as the SEC column. […] The SEC spin column was mounted on an acetonitrile-aliquoted 384-well U-bottom plate and centrifuged; the SEC spin column filtrate, which is a protein fraction, was recovered in 50% acetonitrile. The protein precipitate produced by the acetonitrile was removed via centrifugation and filtration for deproteinization; the resulting filtrate was concentrated by centrifugal concentration and re-dissolved in 10 μL of 50% methanol to obtain a mass analysis sample. The mobile phase supplied to the mass analyzer was 0.1% formic acid/50% methanol solution in the positive ion mode, and 0.1% ammonia/50% methanol solution in the negative ion mode; these mobile phases were used at a flow rate of 40 μL/min. 2-μL of mass analysis samples were injected using an autosampler at 2-minute intervals; the mass spectral intensity of the compound was measured to retrieve the spectral intensity of the pharmaceutical compound contained in the SEC spin column filtrate (protein fraction eluted from SEC).

FLJ41991-derived protein = biological target: T4, FLJ41991-derived protein (Homo sapiens, UniProt P57764, E293G); assay: SEC/MS interaction analysis, FLJ41991-derived protein (GSDMDC1); assay type: binding
T4 construct: His-tag (N); made in house; host or cells: Escherichia coli BL21star(DE3)pLysS (pDEST17)
T4 sequence (P57764 265-484 E293G): T3 sequence (P57764 265-484) with E29G
Method in brief: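 Compound–protein mixtures separated by SEC (micro-LC column with 10 mM ammonium acetate mobile phase, or Bio-Gel P6 spin column) and analysed by ESI mass spectrometry. Interaction inferred from a protein-dependent shift in the compound's mass chromatogram, or from compound signal intensity in the eluted protein fraction.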

FLJ22317-derived protein = biological target: T5, FLJ22317-derived protein (Homo sapiens, UniProt Q9NWV8); assay: SEC/MS interaction analysis, FLJ22317-derived protein (HSPC142 protein); assay type: binding; conditions: TSKgel super SW2000 micro-LC column (1.0 mm ID×30 mm); presence vs absence of protein; data not shown
T5 construct: His-tag (N); made in house; host or cells: Escherichia coli BL21star(DE3)pLysS
T5 sequence (Q9NWV8 whole entry): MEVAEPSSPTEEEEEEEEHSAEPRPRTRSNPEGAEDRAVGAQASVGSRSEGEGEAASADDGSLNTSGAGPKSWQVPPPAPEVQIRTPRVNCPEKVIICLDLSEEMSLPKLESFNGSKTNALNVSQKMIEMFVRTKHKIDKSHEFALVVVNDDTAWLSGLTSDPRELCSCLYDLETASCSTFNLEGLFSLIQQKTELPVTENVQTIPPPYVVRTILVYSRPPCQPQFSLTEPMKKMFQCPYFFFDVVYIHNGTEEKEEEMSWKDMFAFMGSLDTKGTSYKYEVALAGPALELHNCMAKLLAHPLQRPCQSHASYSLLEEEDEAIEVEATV
Excerpt: The specific procedures are shown below.

FLJ39553-derived protein = biological target: T6, FLJ39553-derived protein (Homo sapiens, UniProt Q6P6B1, N326S); assay: SEC/MS interaction analysis, FLJ39553-derived protein (hypothetical protein FLJ39553); assay type: binding; conditions: TSKgel super SW2000 micro-LC column (1.0 mm ID×30 mm); presence vs absence of protein; data not shown
T6 construct: His-tag (N); made in house; host or cells: Escherichia coli BL21star(DE3)pLysS
T6 sequence (Q6P6B1 1-374 N326S): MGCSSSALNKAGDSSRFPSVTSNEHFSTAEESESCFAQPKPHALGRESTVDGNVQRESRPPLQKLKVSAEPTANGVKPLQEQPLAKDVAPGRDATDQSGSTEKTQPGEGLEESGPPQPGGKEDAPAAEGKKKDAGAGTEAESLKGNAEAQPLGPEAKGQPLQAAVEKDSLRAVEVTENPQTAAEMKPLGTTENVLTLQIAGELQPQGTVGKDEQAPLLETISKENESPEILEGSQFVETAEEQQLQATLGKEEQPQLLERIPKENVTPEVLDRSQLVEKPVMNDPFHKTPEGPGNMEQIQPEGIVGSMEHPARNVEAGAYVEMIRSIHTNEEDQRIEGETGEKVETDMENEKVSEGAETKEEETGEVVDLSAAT
Excerpt: as §1, §2, §3, §4, §5

FLJ10537-derived protein = biological target: T7, FLJ10537-derived protein (Homo sapiens, UniProt Q9NR28); assay: SEC/MS interaction analysis, FLJ10537-derived protein (DIABLO homolog; SMAC); assay type: binding; conditions: TSKgel super SW2000 micro-LC column (1.0 mm ID×30 mm); presence vs absence of protein; data not shown
T7 construct: His-tag (N); made in house; host or cells: Escherichia coli BL21star(DE3)pLysS
T7 sequence (Q9NR28 1-186 isoform Q9NR28-2): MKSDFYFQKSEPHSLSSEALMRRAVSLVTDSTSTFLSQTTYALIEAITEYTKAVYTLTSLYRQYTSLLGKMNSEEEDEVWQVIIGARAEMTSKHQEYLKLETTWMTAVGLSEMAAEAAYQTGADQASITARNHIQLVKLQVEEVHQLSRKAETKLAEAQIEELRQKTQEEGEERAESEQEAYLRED
Excerpt: as §1, §2, §3, §4, §5

Molecule: solanine α
- interaction judged from mass chromatogram of the compound (elution from SEC micro-LC column) (FLJ22317-derived protein): there was an interaction
- FLJ No of the derived protein with which the compound was judged to exhibit a concentration-dependent interaction [1]: FLJ22317; also recorded: FLJ39553

Molecule: COc1c2occc2cc2ccc(=O)oc12 [methoxsalen]
- interaction judged from mass chromatogram of the compound (elution from SEC micro-LC column) (FLJ10537-derived protein): there was an interaction
- FLJ No of the derived protein with which the compound was judged to exhibit a concentration-dependent interaction [1]: FLJ10537

Continued, in another order:

- interaction judged from mass chromatogram of the compound (elution from SEC micro-LC column) (FLJ25288-derived protein): there was an interaction
Molecule: CN(Cc1cnc2nc(N)nc(N)c2n1)c1ccc(C(=O)N[C@@H](CCC(=O)O)C(=O)O)cc1 (racemic) [amethopterin (R, S), amethopterin]
- FLJ No of the derived protein with which the compound was judged to exhibit a concentration-dependent interaction [1]: FLJ25288

- interaction judged from mass spectrum peak intensity of the compound in the spin column filtrate (FLJ11211-derived protein): there was an interaction
- interaction judged from mass spectrum peak intensity of the compound in the spin column filtrate (FLJ38897-derived protein): an interaction was observed
- spectrum intensity of the compound in the SEC spin column filtrate (FLJ41991-derived protein; compound 12.5 μM, protein 0 μM): 26814
- spectrum intensity of the compound in the SEC spin column filtrate (FLJ41991-derived protein; compound 12.5 μM, protein 5 μM): 200843
- spectrum intensity of the compound in the SEC spin column filtrate (FLJ41991-derived protein; compound 12.5 μM, protein 10 μM): 376865
- spectrum intensity of the compound in the SEC spin column filtrate (FLJ41991-derived protein; compound 12.5 μM, protein 25 μM): 1734729
- spectrum intensity of the compound in the SEC spin column filtrate (FLJ41991-derived protein; compound 25 μM, protein 0 μM): 87636
- spectrum intensity of the compound in the SEC spin column filtrate (FLJ41991-derived protein; compound 25 μM, protein 5 μM): 311313
- spectrum intensity of the compound in the SEC spin column filtrate (FLJ41991-derived protein; compound 25 μM, protein 10 μM): 949465
- spectrum intensity of the compound in the SEC spin column filtrate (FLJ41991-derived protein; compound 25 μM, protein 25 μM): 4190413
- spectrum intensity of the compound in the SEC spin column filtrate (FLJ41991-derived protein; compound 62.5 μM, protein 0 μM): 231173
- spectrum intensity of the compound in the SEC spin column filtrate (FLJ41991-derived protein; compound 62.5 μM, protein 5 μM): 1759965
- spectrum intensity of the compound in the SEC spin column filtrate (FLJ41991-derived protein; compound 62.5 μM, protein 10 μM): 5619658
- spectrum intensity of the compound in the SEC spin column filtrate (FLJ41991-derived protein; compound 62.5 μM, protein 25 μM): 9678283
- interaction judged from spectrum intensity of the compound in the SEC spin column filtrate (protein fraction eluted from SEC) (FLJ41991-derived protein; spin column method, doses of both compound and protein varied): concentration-dependent interaction
Molecule: CC(C)(C)c1ccc(C(O)CCCN2CCC(C(O)(c3ccccc3)c3ccccc3)CC2)cc1 (stereo not drawn) [terfenadine]
- FLJ No of the derived protein with which the compound was judged to exhibit a concentration-dependent interaction [1]: FLJ11211; also recorded: FLJ38897; also recorded: FLJ41991

- interaction judged from mass chromatogram of the compound (elution from SEC micro-LC column) (FLJ39553-derived protein): there was an interaction
Molecule: C[C@@H]1[C@H](O)[C@@H](C)/C=C/C=C/C=C/C=C/C=C/C=C/C=C/[C@H](O[C@@H]2O[C@H](C)[C@@H](O)[C@H](N)[C@@H]2O)C[C@@H]2O[C@](O)(C[C@@H](O)C[C@@H](O)[C@H](O)CC[C@@H](O)C[C@@H](O)CC(=O)O[C@H]1C)C[C@H](O)[C@H]2C(=O)O [amphotericin B]
- FLJ No of the derived protein with which the compound was judged to exhibit a concentration-dependent interaction [1]: FLJ39553
